From patent US4001419A, “1'-Substituted xanthene-9-spiro-4'-piperidine derivatives” (Imperial Chemical Industries Limited, priority 1974, dated 1977)

Assay: LD50 (acute toxicity)
Design: species or system mice
Details: mouse, in vivo; intravenous; read-out: LD50 when dosed intravenously
Protocol: All the compounds exemplified in this specification are active on at least one of these standard tests at a dose of equal to or less than 100 mg./kg. of the free base. […] Other LD50 values for compounds of the invention when dosed intravenously are as follows: […]

Row | SMILES | LD50 [mg/kg]
1 | COc1ccc2c(c1)Oc1c(OC(C)=O)cccc1C21CCN(C)CC1 [4-OAc H 6-OMe H] | > 20
2 | CC(=O)Oc1cccc2c1Oc1cc(Cl)ccc1C21CCN(C)CC1 [4-OAc H 6-Cl H] | > 35
3 | CN1CCC2(CC1)c1ccc(Cl)cc1Oc1c(O)cccc12 [6-chloro-4-hydroxy-1'-methylxanthene-9-spiro-4'-piperidine] | > 25
4 | CSc1ccc2c(c1)Oc1c(OC(C)=O)cccc1C21CCN(C)CC1 [4-OAc H 6-SMe H] | > 40
5 | CN1CCC2(CC1)c1cccc(O)c1Oc1cccc(F)c12 [4-OH H 8-F H] | > 20

Same assay, conditions: mouse, in vivo; mice, oral; read-out: oral LD50

Row | SMILES | LD50 [mg/kg]
6 | CN1CCC2(CC1)c1ccc(Cl)cc1Oc1c(O)cccc12 [6-chloro-4-hydroxy-1'-methylxanthene-9-spiro-4'-piperidine] | > 200
